According to ChEMBL document CHEMBL5046258, “Anti-inflammatory Dimeric Benzophenones from an Endophytic Pleosporales Species” (J Nat Prod, 2022):

What follows are compounds tested on RAW264.7 (assay: Antiinflammatory activity in mouse RAW 264.7 cells assessed as inhibition of LPS-induced nitric oxide production measured after 24 hrs by Griess reagent assay). Details: RAW264.7, 24 h.
Format: functional, cell-based
`C[C@@H]1C[C@H]2[C@@H]3CCC4=CC(=O)C=C[C@]4(C)[C@@]3(F)[C@@H](O)C[C@]2(C)[C@@]1(O)C(=O)CO` [DEXAMETHASONE] was tested, and the IC50 was 22.2 µM. With `COc1cc(O)c(C(=O)c2c(C)cc(OC)cc2OC)c(O)c1` the IC50 was 45.2 µM. For `Cc1cc(O)cc2oc3cc(O)cc(O)c3c(=O)c12` [NORLICHEXANTHONE], the IC50 was 35.2 µM. `Cc1cc2c(C)cc(O)cc2c(=O)o1` was tested, and the IC50 was 46.1 µM. For `COc1cc(C)c(C(=O)c2c(O)cc(OC)c(Cc3c(OC)cc(O)c(C(=O)c4c(C)cc(OC)cc4OC)c3O)c2O)c(OC)c1`, the IC50 was 8.8 µM. `Cc1cc(O)cc2oc(=O)c3c(O)cc(O)cc3c12` [ALTERNARIOL] showed an IC50 of 51.4 µM. In the case of `COc1cc(C)c(C(=O)c2c(O)cc(OC)c(C(CCC(=O)O)c3c(OC)cc(O)c(C(=O)c4c(C)cc(OC)cc4OC)c3O)c2O)c(OC)c1`, the IC50 is reported as 15.6 µM. In the case of `COc1cc(C)c(C(=O)c2c(O)cc(OC)cc2O[C@@H]2O[C@H](CO)[C@@H](O)[C@H](O)[C@H]2O)c(O)c1`, the IC50 is reported as 23.3 µM. `COc1cc(O)c(C(=O)c2c(C)cc(O)cc2OC)c(O)c1` was tested, and the IC50 was 35.1 µM. Compound `COc1cc(O)c2c(c1)C1=CC(=O)C(O)=CC1(C)OC2=O` (stereo unspecified) [DEHYDROALTENUSIN] has an IC50 of 39.1 µM. `COc1cc(O)c2c(=O)c3c(C)c(O)c(OC)cc3oc2c1` was tested, and the IC50 was 22.4 µM. `COc1cc(C)c(C(=O)c2c(O)cc(OC)c(Cc3c(O)cc(O)cc3CC(C)=O)c2O)c(OC)c1` gave an IC50 of 18.1 µM. `COc1cc(C)c2c(=O)c3c(O)cc(OC)cc3oc2c1` [LICHEXANTHONE] was tested, and the IC50 was 19.5 µM. Work on `COc1cc(C)c(C(=O)c2c(O)cc(O)cc2O)c(OC)c1` yielded an IC50 of 39 µM. Compound `COc1cc(C)c(C(=O)c2c(O)cc(OC)cc2O[C@@H]2O[C@H](CO)[C@@H](O)[C@H](O)[C@H]2O)c(OC)c1` has an IC50 of 43.3 µM. Compound `COc1cc(O)c(C(=O)Oc2c(C)cc(O)cc2OC)c(O)c1` has an IC50 of 49.7 µM.
